Assay results: patent US20140228377A1, “METHYLPIPERIDINE DERIVATIVE” (TAISHO PHARMACEUTICAL CO., LTD., priority 2011, published 2014)

What was measured:
[1] = target: T1, human orexin-1 receptor (hOX1R) (Homo sapiens, UniProt O43613); assay: Orexin antagonistic activity assay (intracellular Ca2+, FDSS) in CHO cells expressing hOX1R; format: cell-based; conditions: CHO cells expressing hOX1R; ligand peptide 300 pM; Fluo-3 maximum fluorescence intensity; read-out: IC50 value OX1
T1 construct: expressed in transfected cells; host or cells: Chinese hamster ovary (CHO) cells
T1 sequence (O43613 1-425): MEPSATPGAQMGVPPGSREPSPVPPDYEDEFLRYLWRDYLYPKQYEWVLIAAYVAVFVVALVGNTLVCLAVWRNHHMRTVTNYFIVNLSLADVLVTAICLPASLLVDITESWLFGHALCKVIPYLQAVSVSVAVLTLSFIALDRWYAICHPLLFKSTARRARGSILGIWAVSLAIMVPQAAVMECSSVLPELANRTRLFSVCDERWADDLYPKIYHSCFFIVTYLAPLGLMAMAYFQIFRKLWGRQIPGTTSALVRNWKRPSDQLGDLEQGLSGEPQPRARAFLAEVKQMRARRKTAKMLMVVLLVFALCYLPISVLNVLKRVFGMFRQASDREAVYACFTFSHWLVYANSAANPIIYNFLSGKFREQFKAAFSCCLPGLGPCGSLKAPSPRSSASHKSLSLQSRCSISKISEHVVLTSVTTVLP
Method: (§1) The antagonistic activity of each test compound against human orexin-1 receptor (hOX1R) and orexin-2 receptor (hOX2R) was assayed by a modification of a method described in the literature (Toshikatsu Okumura et al., Biochemical and Biophysical Research Communications 280, 976-981, 2001). Chinese hamster ovary (CHO) cells forced to express hOX1R or hOX2R were inoculated at a density of 20,000 cells/well to a 96-well Black clear bottom plate (Nunc) and cultured at 37° C. for 16 hours under 5% CO2 conditions in a Ham's F-12 medium containing 0.1 mM MEM nonessential amino acids, 0.5 mg/ml G418, and 10% fetal bovine serum (all from Invitrogen Corp.). After removal of the medium, 100 μL of a buffer solution for assay (25 mM HEPES (Dojindo Laboratories), Hanks' balanced salt solution (Invitrogen Corp.), 0.1% bovine serum albumin, 2.5 mM probenecid, and 200 μg/ml Amaranth (all from Sigma-Aldrich Corp.), pH 7.4) containing 0.5 μM Fluo-3 AM ester (Dojindo Laboratories) was added to the cells, which were then incubated at 37° C. for 60 minutes under 5% CO2 conditions. After removal of the buffer solution for assay containing Fluo-3 AM ester, each test compound was dissolved at a concentration of 10 mM in dimethyl sulfoxide and diluted with a buffer solution for assay. Then, 150 μL of the solution was added to the cells, which were then incubated for 30 minutes.
(§2) A ligand peptide (Pyr-[…]NH2; Peptide Institute, Inc.) derived from human orexin-A by the substitution of two amino acids was diluted with a buffer solution for assay to final concentrations of 300 pM for hOX1R and 3 nM for hOX2R. Reaction was initiated by the addition of 50 μL of this ligand solution. The fluorescence intensity of the reaction was measured in each well every second for 3 minutes using Functional Drug Screening System (FDSS; manufactured by Hamamatsu Photonics K.K.), and the maximum fluorescence intensity was used as an index for intracellular Ca^2+ concentration to determine antagonistic activity. The antagonistic activity of the test compound was calculated with fluorescence intensity from a well supplemented with only a diluting buffer solution as 100% and fluorescence intensity from a well supplemented with a buffer solution free from the ligand and the compound as 0%. The 50% inhibitory concentration (IC50 value) was determined on the basis of fluorescence intensity derived from the test compound added at varying concentrations.

[2] = target: T2, orexin-2 receptor (hOX2R) (Homo sapiens, UniProt O43614); assay: Orexin antagonistic activity assay (intracellular Ca2+, FDSS) in CHO cells expressing hOX2R; format: cell-based; conditions: CHO cells expressing hOX2R; ligand peptide 3 nM; Fluo-3 maximum fluorescence intensity; read-out: IC50 value OX2
T2 construct: expressed in transfected cells; host or cells: Chinese hamster ovary (CHO) cells
T2 sequence (O43614 1-444): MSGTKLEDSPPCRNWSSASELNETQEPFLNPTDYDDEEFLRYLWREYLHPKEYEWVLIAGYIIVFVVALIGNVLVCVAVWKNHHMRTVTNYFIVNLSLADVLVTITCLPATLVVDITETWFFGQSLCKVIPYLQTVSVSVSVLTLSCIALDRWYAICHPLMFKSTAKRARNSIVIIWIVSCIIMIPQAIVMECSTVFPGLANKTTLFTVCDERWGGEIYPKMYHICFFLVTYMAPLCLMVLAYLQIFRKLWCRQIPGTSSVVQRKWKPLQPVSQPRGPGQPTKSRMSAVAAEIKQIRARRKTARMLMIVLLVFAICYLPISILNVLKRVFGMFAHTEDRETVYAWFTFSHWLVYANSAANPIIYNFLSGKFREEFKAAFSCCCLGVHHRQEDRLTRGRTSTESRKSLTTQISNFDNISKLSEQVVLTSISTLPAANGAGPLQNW
Method: as §1, §2

IC50 [1] | IC50 [2] | Structure (SMILES)
31.9 nM | 7.8 nM | C[C@@H]1CC[C@@H](c2nc3cc(Cl)ccc3o2)CN1C(=O)c1cc(Br)ccc1-n1nccn1 [Example 22, [5-Bromo-2-(2H-1,2,3-triazol-2-yl)phenyyl][(2R,5R)-5-(5-chloro-1,3-benzoxazol-2-yl)-2-methylpiperidin-1-yl]methanone]
168 nM | 22.5 nM | C[C@@H]1CC[C@@H](c2nc3cc(Cl)ccc3o2)CN1C(=O)c1cc(F)ccc1-c1ncc(F)cn1 [Example 23, [(2R,5R)-5-(5-Chloro-1,3-benzoxazol-2-yl)-2-methylpiperidin-1-yl][5-fluoro-2-(5-fluoropyrimidin-2-yl)phenyl]methanone]
99.2 nM | 8.5 nM | COc1cnc(-c2ccc(F)cc2C(=O)N2C[C@H](c3nc4cc(Cl)ccc4o3)CC[C@H]2C)nc1 [Example 24, [(2R,5R)-5-(5-Chloro-1,3-benzoxazol-2-yl)-2-methylpiperidin-1-yl][5-fluoro-2-(5-methoxypyrimidin-2-yl)phenyl]methanone]
387 nM | 66 nM | COc1ccc(-n2nccn2)c(C(=O)N2C[C@H](c3nc4cc(Cl)ccc4o3)CC[C@H]2C)c1 [Example 25, [(2R,5R)-5-(5-Chloro-1,3-benzoxazol-2-yl)-2-methylpiperidin-1-yl][5-methoxy-2-(2H-1,2,3-triazol-2-yl)phenyl]methanone]
11 nM | 8.4 nM | Cc1ccc(C(=O)N2C[C@H](c3nc4cc(Cl)ccc4o3)CC[C@H]2C)c(-n2nccn2)c1 [Example 26, [(2R,5R)-5-(5-Chloro-1,3-benzoxazol-2-yl)-2-methylpiperidin-1-yl][4-methyl-2-(2H-1,2,3-triazol-2-yl)phenyl]methanone]
1790 nM | 187 nM | C[C@@H]1CC[C@@H](c2nc3cc(Cl)ccc3o2)CN1C(=O)c1ccc(Cl)cc1-n1nccn1 [Example 27, [(2R,5R)-5-(5-Chloro-1,3-benzoxazol-2-yl)-2-methylpiperidin-1-yl][4-chloro-2-(2H-1,2,3-triazol-2-yl)phenyl]methanone]
50.4 nM | 1.5 nM | C[C@@H]1CC[C@@H](c2nc3cc(F)ccc3o2)CN1C(=O)c1ccccc1-n1nccn1 [Example 28, [(2R,5R)-5-(5-Fluoro-1,3-benzoxazol-2-yl)-2-methylpiperidin-1-yl][2-(2H-1,2,3-triazol-2-yl)phenyl]methanone]
111 nM | 6 nM | C[C@@H]1CC[C@@H](c2nc3cc(F)ccc3o2)CN1C(=O)c1cc(F)ccc1-n1nccn1 [Example 29, [(2R,5R)-5-(5-Fluoro-1,3-benzoxazol-2-yl)-2-methylpiperidin-1-yl][5-fluoro-2-(2H-1,2,3-triazol-2-yl)phenyl]methanone]
74.4 nM | 3.7 nM | C[C@@H]1CC[C@@H](c2nc3cc(F)ccc3o2)CN1C(=O)c1cc(Cl)ccc1-n1nccn1 [Example 30, [5-Chloro-2-(2H-1,2,3-triazol-2-yl)phenyl][(2R,5R)-5-(5-fluoro-1,3-benzoxazol-2-yl)-2-methylpiperidin-1-yl]methanone]
68.1 nM | 29.7 nM | C[C@@H]1CC[C@@H](c2nc3cc(F)ccc3o2)CN1C(=O)c1ccccc1-c1ncccn1 [Example 31, [(2R,5R)-5-(5-Fluoro-1,3-benzoxazol-2-yl)-2-methylpiperidin-1-yl][2-(pyrimidin-2-yl)phenyl]methanone]
24.9 nM | 8.2 nM | C[C@@H]1CC[C@@H](c2nc3cc(F)ccc3o2)CN1C(=O)c1cc(F)ccc1-c1ncccn1 [Example 32, [(2R,5R)-5-(5-Fluoro-1,3-benzoxazol-2-yl)-2-methylpiperidin-1-yl][5-fluoro-2-(pyrimidin-2-yl)phenyl]methanone]
44.6 nM | 9.2 nM | C[C@@H]1CC[C@@H](c2nc3cc(F)ccc3o2)CN1C(=O)c1cc(Cl)ccc1-c1ncccn1 [Example 33, [5-Chloro-2-(pyrimidin-2-yl)phenyl][(2R,5R)-5-(5-fluoro-1,3-benzoxazol-2-yl)-2-methylpiperidin-1-yl]methanone]
212 nM | 8.4 nM | C[C@@H]1CC[C@@H](c2nc3cc(F)ccc3o2)CN1C(=O)c1ccc(F)cc1-n1nccn1 [Example 34, [(2R,5R)-5-(5-Fluoro-1,3-benzoxazol-2-yl)-2-methylpiperidin-1-yl][4-fluoro-2-(2H-1,2,3-triazol-2-yl)phenyl]methanone]
91.1 nM | 5 nM | C[C@@H]1CC[C@@H](c2nc3cc(F)ccc3o2)CN1C(=O)c1c(F)cccc1-n1nccn1 [Example 35, [(2R,5R)-5-(5-Fluoro-1,3-benzoxazol-2-yl)-2-methylpiperidin-1-yl][2-fluoro-6-(2H-1,2,3-triazol-2-yl)phenyl]methanone]
8.9 nM | 2.5 nM | Cc1ccc(-n2nccn2)c(C(=O)N2C[C@H](c3nc4cc(C(F)(F)F)ccc4o3)CC[C@H]2C)c1 [Example 36, [5-Methyl-2-(2H-1,2,3-triazol-2-yl)phenyl][(2R,5R)-2-methyl-5-[5-(trifluoromethyl)-1,3-benzoxazol-2-yl]piperidin-1-yl]methanone]
36.5 nM | 9.3 nM | Cc1ccc(-c2ncccn2)c(C(=O)N2C[C@H](c3nc4cc(C(F)(F)F)ccc4o3)CC[C@H]2C)c1 [Example 37, [5-Methyl-2-(pyrimidin-2-yl)phenyl]{(2R,5R)-2-methyl-5-[5-(trifluoromethyl)-1,3-benzoxazol-2-yl]piperidin-1-yl}methanone]
814 nM | 78.6 nM | C[C@@H]1CC[C@@H](c2nc3cc(C(F)(F)F)ccc3o2)CN1C(=O)c1cc(F)ccc1-c1ncccn1 [Example 38, [5-Fluoro-2-(pyrimidin-2-yl)phenyl]{(2R,5R)-2-methyl-5-[5-(trifluoromethyl)-1,3-benzoxazol-2-yl]piperidin-1-yl}methanone]
123 nM | 26.3 nM | C[C@@H]1CC[C@@H](c2nc3cc(C(F)(F)F)ccc3o2)CN1C(=O)c1cc(Cl)ccc1-c1ncccn1 [Example 39, [5-Chloro-2-(pyrimidin-2-yl)phenyl]{(2R,5R)-2-methyl-5-[5-(trifluoromethyl)-1,3-benzoxazol-2-yl]piperidin-1-yl}methanone]
157 nM | 100 nM | Cc1ccc(-n2nccn2)c(C(=O)N2C[C@H](c3nc4cc(C(F)(F)F)ccc4o3)CC[C@H]2C)n1 [Example 40, [6-Methyl-3-(2H-1,2,3-triazol-2-yl)pyridin-2-yl]{(2R,5R)-2-methyl-5-[5-(trifluoromethyl)-1,3-benzoxazol-2-yl]piperidin-1-yl}methanone]
177 nM | 45.1 nM | Cc1ccc(-c2ncccn2)c(C(=O)N2C[C@H](c3nc4cc(OC(F)(F)F)ccc4o3)CC[C@H]2C)c1 [Example 41, [5-Methyl-2-(pyrimidin-2-yl)phenyl]{(2R,5R)-2-methyl-5-[5-(trifluoromethoxy)-1,3-benzoxazol-2-yl]piperidin-1-yl}methanone]
